17 compounds from US8420626B2, “Arene connected polyamine macrocyclic derivatives, preparation methods and pharmaceutical uses thereof” (Beijing Molecule Science and Technology Co., Ltd., priority 2007, dated 2013) can be followed below.

Holding throughout (type): cell-based
One data set deals with p24 antigens of HIV-1. Put plainly: Anti-HIV activity: inhibition of p24 antigen (ELISA). Here is the method: (§1) Per well of polystyrene plate (Immulon IB, Dynex Technology, Chantilly, Va.) was applied with HIV IG (a buffer of 0.085 M sodium carbonate and sodium bicarbonate, pH=9.6), stood at 4° C. over night, washed with PBS-T buffer (0.01 M PBS contains 0.05% Tween-20). The reaction was […] with PBS containing 1% skimmed milk (Bio-Rad Inc., Hercules, Calif.). A virus dissolved product was added to the wells, incubated at 37° C. for 1 hour, and washed. To the washed wells were added anti-P24 mAb (183-12H-5C), biotin labeled antimouse IgG1 (Santa Cruz Biotech., Santa Cruz, Calif.), SA-HRP and TMB successively. The reaction was terminated with 1N H2SO4. The absorption was detected at 450 nm by means of ELISA detector (Ultra 384, Tecan). Recombination protein p24 (US Biological, Swampscott, Mass.) was considered when the response curve of standard dosage was established. The inhibition activity IC50 (half inhibition concentration) values of p24 protein and (cell pathological effect) CPE were calculated by Calcusyn software provided by Sloan-Kettering Cancer Center (New York).
(§2) The inhibition activity (IC50) of pathological effect (CPE) and cytotoxicity (CC50) of p24 antigens and cells of HIV-1 of the compounds of part of examples were shown as follows: […]
On the technique in general: ELISA stands for enzyme-linked immunosorbent assay.

The next data set is described as follows: Cytotoxicity (XTT assay). The conditions noted are these: half toxic concentration, incubation 4 days at 37° C. As to the method:
To 100 μl solution per compound on 96 wells cultivation plate at a certain concentration was added the same volume of cells (5×10^5/ml). Incubation was performed at 37° C. for 4 days. To the resultant were added 50 μl XTT solution (1 mg/ml) and 0.02 nM PMS. After the incubation was performed for 4 hours, the absorption was detected at 450 nm by means of ELISA detector. The CC50 (half toxic concentration) value was calculated by Calcusyn software provided by Sloan-Kettering Cancer Center (New York).
as §2

For another data set, the system named is HIV-1. Put plainly: Anti-HIV activity: inhibition of cell pathological effect (CPE). The conditions noted are these: Human immunodeficiency virus 1; inhibition of cell pathological effect of HIV-1. Here is the method: as §1, §2
Where [1] appears, read: Human immunodeficiency virus 1, inhibition of HIV-1 p24 antigen, ELISA at 450 nm, read-out: IC50 (μM) p24.

The IC50 is the concentration at which inhibition is half-maximal. For orientation: CC50 means the concentration at which the toxic effect on the cells reaches its halfway point. High values mean better tolerance by the cells, low ones harm at low concentration.

Where a name gives a salt, the structure may show the parent alone. Read-outs that look alike come from different tables or passages of the source.

Turning to `c1ccc(C(c2cccc(CN3CCCNCCNCCCNCC3)c2)c2cccc(CN3CCCNCCNCCCNCC3)c2)nc1` [Example 6, 2-{[3,3′-bis[(1,4,8,11-tetraazacyclotetradecan-1-yl)-methyl]-1,1′yl]-diphenyl}methylenepyridyl octahydrobromide dihydrate], the IC50 came out at 0.16 ± 0.04 µM in the data set with p24 antigens of HIV-1 (setting [1]) and 0.55 ± 0.16 µM in the data set on HIV-1. Also, in “Cytotoxicity (XTT assay)”, the CC50 at 4 days was 377 ± 34.4 µM.

For the compound `Brc1ccc(C(c2ccc(CN3CCCNCCNCCCNCC3)cc2)c2ccc(CN3CCCNCCNCCCNCC3)cc2)cc1` [Example 9, 4,4′-bis[(1,4,8,11-tetraazacyclotetradecan-1-yl)-methyl]-4″-bromo-1,1′,1″-triphenylmethane octahydrobromide dihydrate], the IC50 with p24 antigens of HIV-1 (setting [1]) amounted to 0.43 ± 0.07 µM; in the data set on HIV-1 it was 1.75 ± 0.37 µM. For the same compound, the CC50 at 4 days in the data set “Cytotoxicity (XTT assay)” came to 65.8 ± 7.96 µM.

As for `Brc1ccc(C(c2cccc(CN3CCCNCCNCCCNCC3)c2)c2cccc(CN3CCCNCCNCCCNCC3)c2)cc1` [Example 3, 3,3′-bis[(1,4,8,11-tetraazacyclotetradecan-1-yl)-methyl]-4″-bromo-1,1′,1″-triphenylmethane octahydrobromide dihydrate], the IC50 in the data set with p24 antigens of HIV-1 (setting [1]) came out at 0.13 ± 0.01 µM; in the data set on HIV-1, 0.08 ± 0.04 µM. Moreover, in the data set “Cytotoxicity (XTT assay)”, the CC50 at 4 days came to 161 ± 4.23 µM.

Turning to `Clc1cccc(C(c2cccc(CN3CCCNCc4cccc(n4)CNCCC3)c2)c2cccc(CN3CCCNCc4cccc(n4)CNCCC3)c2)c1` [Example 23, 3,3′-bis{[3,7,11,17-tetraaza-dicyclo[11.3.1]heptadecan-1(16),13(17),14-trien-7-yl]-methyl}-3″-chloro-1,1′,1″-triphenylmethane hexahydrobromide dihydrate], the IC50 with p24 antigens of HIV-1 (setting [1]) worked out at 0.32 ± 0.05 µM; in the data set on HIV-1 it was 1.18 ± 0.48 µM. In addition, in the data set “Cytotoxicity (XTT assay)”, the CC50 at 4 days is 15.3 ± 0.56 µM.

Turning to `c1ccc(C(c2cccc(CN3CCCNCc4cccc(c4)CNCCC3)c2)c2cccc(CN3CCCNCc4cccc(c4)CNCCC3)c2)cc1` [Example 13, 3,3′-bis{[3,7,11-triaza-dicyclo[11.3.1]heptadecan-1(16),13(17),14-trien-7-yl]-methyl}-1,1′,1″-triphenylmethane hexahydrobromide dihydrate], the IC50 in the data set with p24 antigens of HIV-1 (Human immunodeficiency virus 1, read-out: IC50 (μM) p24) worked out at 0.64 ± 0.08 µM; in the data set with HIV-1, 1.56 ± 0.48 µM. The same compound had a CC50 at 4 days in the data set “Cytotoxicity (XTT assay)” of 12.4 ± 3.69 µM.

Regarding `Clc1cccc(C(c2cccc(CN3CCCNCCNCCCNCC3)c2)c2cccc(CN3CCCNCCNCCCNCC3)c2)c1` [Example 5, 3,3′-bis[(1,4,8,11-tetraazacyclotetradecan-1-yl)-methyl]-3″-chloro-1,1′,1″-triphenylmethane octahydrobromide dihydrate], the IC50 in the data set on p24 antigens of HIV-1 (setting [1]) worked out at 0.35 ± 0.04 µM; in the data set with HIV-1, 0.23 ± 0.01 µM. This compound also returned a CC50 at 4 days in “Cytotoxicity (XTT assay)” of 162 ± 2.69 µM.

As for `Fc1ccc(C(c2cccc(CN3CCCNCCNCCCNCC3)c2)c2cccc(CN3CCCNCCNCCCNCC3)c2)cc1` [Example 4, 3,3′-bis[(1,4,8,11-tetraazacyclotetradecan-1-yl)-methyl]-4″-fluoro-1,1′,1″-triphenylmethane octahydrobromide dihydrate], the IC50 was 0.32 ± 0.02 µM in the data set on p24 antigens of HIV-1 (setting [1]) and 0.42 ± 0.06 µM in the data set on HIV-1. Further, in the data set “Cytotoxicity (XTT assay)”, the midpoint of cytotoxicity, the CC50 at 4 days, lay at 367 ± 54 µM.

Consider `Clc1cccc(C(c2ccc(CN3CCCNCCNCCCNCC3)cc2)c2ccc(CN3CCCNCCNCCCNCC3)cc2)c1` [Example 11, 4,4′-bis[(1,4,8,11-tetraazacyclotetradecan-1-yl)-methyl]-3″-chloro-1,1′,1″-triphenylmethane octahydrobromide dihydrate], for which the IC50 in the data set on p24 antigens of HIV-1 (setting [1]) came to 0.65 ± 0.2 µM; with HIV-1, 1.48 ± 0.52 µM. For the same compound, it took 67.8 ± 13.3 µM to reach half-maximal cytotoxicity in the data set “Cytotoxicity (XTT assay)” (CC50 at 4 days).

In the case of `c1ccc(C(c2ccc(CN3CCCNCCNCCCNCC3)cc2)c2ccc(CN3CCCNCCNCCCNCC3)cc2)cc1` [Example 7, 4,4′-bis[(1,4,8,11-tetraazacyclotetradecan-1-yl)-methyl]-1,1′,1″-triphenylmethane octahydrobromide dihydrate], the IC50 with p24 antigens of HIV-1 (setting [1]) was 0.98 ± 0.12 µM; with HIV-1, 2.42 ± 0.4 µM. In addition, in the data set “Cytotoxicity (XTT assay)”, it took 101 ± 1.05 µM to reach half-maximal cytotoxicity (CC50 at 4 days).

In the case of `c1ccc(C(c2cccc(CN3CCCNCc4cccc(n4)CNCCC3)c2)c2cccc(CN3CCCNCc4cccc(n4)CNCCC3)c2)cc1` [Example 19, 3,3′-bis{[3,7,11,17-tetraaza-dicyclo[11.3.1]heptadecan-1(16),13(17),14-trien-7-yl]-methyl}-1,1′,1″-triphenyl methane hexahydrobromide dihydrate], the IC50 turned out to be 0.44 ± 0.04 µM in the data set with p24 antigens of HIV-1 (setting [1]) and 0.79 ± 0.02 µM in the data set on HIV-1. In “Cytotoxicity (XTT assay)”, this compound gave a CC50 at 4 days of 14.5 ± 1.29 µM.

For `Cc1ccc(C(c2cccc(CN3CCCNCCNCCCNCC3)c2)c2cccc(CN3CCCNCCNCCCNCC3)c2)cc1` [Example 2, 3,3′-bis[(1,4,8,11-tetraazacyclotetradecan-1-yl)-methyl]-4″-methyl-1,1′,1″-triphenylmethane octahydrobromide dihydrate], the IC50 was determined as 0.17 ± 0.08 µM in the data set on p24 antigens of HIV-1 (setting [1]) and 0.48 ± 0.31 µM with HIV-1. The CC50 at 4 days in “Cytotoxicity (XTT assay)” was determined as 285 ± 18.8 µM.

Turning to `c1ccc(C(c2cccc(CN3CCCNCCNCCCNCC3)c2)c2cccc(CN3CCCNCCNCCCNCC3)c2)cc1` [Example 1, 3,3′-bis[(1,4,8,11-tetraazacyclotetradecan-1-yl)-methyl]-1,1′,1″-triphenylmethane octahydrobromide dihydrate], the IC50 was determined as 0.13 ± 0.02 µM with p24 antigens of HIV-1 (setting [1]) and 0.41 ± 0.11 µM in the data set with HIV-1. In addition, the CC50 at 4 days in “Cytotoxicity (XTT assay)” is 322 ± 7.13 µM.

Consider `Fc1ccc(C(c2ccc(CN3CCCNCCNCCCNCC3)cc2)c2ccc(CN3CCCNCCNCCCNCC3)cc2)cc1` [Example 10, 4,4′-bis[(1,4,8,11-tetraazacyclotetradecan-1-yl)-methyl]-4″-fluoro-1,1′,1″-triphenylmethane octahydrobromide dihydrate], for which the IC50 came out at 0.43 ± 0.11 µM in the data set on p24 antigens of HIV-1 (setting [1]) and 1.22 ± 0.2 µM in the data set with HIV-1. In addition, the cytotoxic concentration (CC50) at 4 days in “Cytotoxicity (XTT assay)” was 91.3 ± 8.75 µM.

`Brc1ccc(C(c2ccc(CN3CCCNCc4cccc(n4)CNCCC3)cc2)c2ccc(CN3CCCNCc4cccc(n4)CNCCC3)cc2)cc1` [Example 32, 4,4′-bis{[3,7,11,17-tetraaza-dicyclo[11.3.1]heptadecan-1(16),13(17),14-trien-7-yl]-methyl}-4″-bromo-1,1′,1″-triphenylmethane hexahydrobromide dihydrate]: the IC50 turned out to be 0.15 ± 0.02 µM with p24 antigens of HIV-1 (setting [1]) and 0.8 ± 0.23 µM in the data set on HIV-1. For the same compound, the CC50 at 4 days in the data set “Cytotoxicity (XTT assay)” came out at 12.9 ± 0.31 µM.

With `c1ccc(C(c2ccc(CN3CCCNCc4cccc(c4)CNCCC3)cc2)c2ccc(CN3CCCNCc4cccc(c4)CNCCC3)cc2)cc1` [Example 25, 4,4′-bis{[3,7,11-triaza-dicyclo[11.3.1]heptadecan-1(16),13(17),14-trien-7-yl]-methyl}-1,1′1″-triphenylmethane hexahydrobromide dihydrate], the IC50 in the data set on p24 antigens of HIV-1 (setting [1]) amounted to 0.55 ± 0.09 µM; with HIV-1, 1.87 ± 0.28 µM. In the data set “Cytotoxicity (XTT assay)”, this compound displayed a half-maximal cytotoxic concentration (CC50) at 4 days of 32.5 ± 3.27 µM.

Regarding `Cc1ccc(C(c2ccc(CN3CCCNCc4cccc(n4)CNCCC3)cc2)c2ccc(CN3CCCNCc4cccc(n4)CNCCC3)cc2)cc1` [Example 31, 4,4′-bis{[3,7,11,17-tetraaza-dicyclo[11.3.1]heptadecan-1(16),13(17),14-trien-7-yl]-methyl}-4″-methyl-1,1′,1″-triphenylmethane hexahydrobromide dihydrate], the results for the IC50 in the data set on p24 antigens of HIV-1 (setting [1]) and with HIV-1 were 0.78 ± 0.18 µM and 1.07 ± 0.79 µM, respectively. The compound also came in with a CC50 at 4 days in “Cytotoxicity (XTT assay)” of 39.29 ± 0.08 µM.

With `Cc1ccc(C(c2ccc(CN3CCCNCCNCCCNCC3)cc2)c2ccc(CN3CCCNCCNCCCNCC3)cc2)cc1` [Example 8, 4,4′-bis[(1,4,8,11-tetraazacyclotetradecan-1-yl)-methyl]-4″-methyl-1,1′,1″-triphenylmethane octahydrobromide dihydrate], the half-maximal inhibitory concentration (IC50) in the data set on p24 antigens of HIV-1 (setting [1]) came to 0.97 ± 0.14 µM; in the data set with HIV-1 it was 2.05 ± 0.58 µM. The same compound yielded a CC50 at 4 days in the data set “Cytotoxicity (XTT assay)” of 130 ± 12.4 µM.
